Data reported in patent US12173089B2, “Inhibition of pulmonary fibrosis with nutlin-3A and peptides” (BOARD OF REGENTS, THE UNIVERSITY OF TEXAS SYSTEM, priority 2013, dated 2024).

Experiments:
[1] = test system: lung epithelial cells (LECs); conditions: in vitro and in vivo; cited from earlier work
[2] = after BLM; cited from earlier work
[3] = test system: ATII cell; conditions: BLM- or cigarette smoke-induced; cited from earlier work
[4] = test system: BLM-treated mice; experiment: Established lung fibrosis in BLM-treated mice (CT scanning, lung function, trichrome staining, hydroxyproline, desmosine); format: in vivo; conditions: IP or IV administration beginning 14 d after BLM, WT mice; results reported herein and elsewhere
Description: FIGS. 10A-10D. Nutlin-3a (NTL) inhibits lung fibrosis in BLM-treated mice. Mice were exposed to BLM for 14 d to induce lung fibrosis. Saline treated mice were used as fibrosis controls. After 14 d, mice exposed to BLM were injected IV with either vehicle or nutlin-3 a (10 mg/kg body weight) (Zhang F et al. Drug Metab Dispos 39: 15-21, 2011) to determine whether nutlin-3 a inhibited established lung fibrosis. On day 21 after BLM injury, mice underwent CT scanning to assess the extent of fibrosis (FIG. 10A). One representative example is shown (n=9). (FIG. 10B) Lung compliance and resistance were measured in the same mice using the Flexivent system to assess improvement in lung function after nutlin-3 a treatment (n=9). (FIG. 10C) Lung sections were subjected to trichrome staining to assess lung architecture and collagen deposition as an indication of lung fibrosis. (FIG. 10D) Whole lung homogenates were analyzed for total collagen (hydroxyproline) and desmosine content as an independent assessment of changes in ECM.
FIGS. 11A-11D. CSP-4 inhibits established lung fibrosis and improves lung function. Mice were exposed to BLM to induce pulmonary fibrosis. After 14 d, the mice were injected IV with either vehicle or 1.5 mg/kg body weight of CSP-4 or control peptide (“CP”) of scrambled sequence. On d 21 after BLM injury, mice underwent CT scanning examine CSP-4 inhibition of established lung fibrosis (FIG. 11A). One representative example is shown (n=9). (FIG. 11B): Lung volumes were measured in the same mice (n=9) using quantitative CT renditions. (FIG. 11C): Lung sections were subjected to trichrome and H&E staining (not shown) to assess collagen deposition as an indicator of lung fibrosis. (FIG. 11D) Analysis of whole lung homogenates for total hydroxyproline content.
Mice exposed to BLM (or saline in controls) for 14 d to induce lung fibrosis were injected IV with nutlin-3a (10 mg/kg body weight) (Zhang et al, supra) or a vehicle control to determine and the effect on established lung fibrosis was examined. Fibrosis was evaluated by CT scanning and lung function (compliance and resistance) were measured using the Flexivent system. Lung sections were subjected to trichrome staining and H & E staining (the latter not shown) to assess lung architecture and collagen deposition as an indication of fibrosis. Finally, whole lung homogenates were analyzed for total collagen (hydroxyproline) and desmosine content (Bhandary Y P et al, Am J Physiol: Lung Cell Mol Physiol 302:L463-73, 2012; Bhandary Y P et al, Am J Pathol, 183: 131-43 2013) as an independent assessment of the ECM. […] Oral administration of Nutlin-3a 14 days after BLM injury likewise inhibited pulmonary fibrosis in mice.
Mice were exposed to BLM to induce pulmonary fibrosis. After 14 d, the mice were injected IV with either vehicle or 1.5 mg/kg body weight of CSP-4 (SEQ ID NO: 1) or control peptide (scrambled sequence of same amino acids; CP, SEQ ID NO:5) at 1.5 mg/kg body weight or vehicle was injected IV into mice exposed to BLM 14 days earlier. One week later, mice were tested by CT scanning to evaluate lung fibrosis. Lung volume was measured in the same mice using quantitative CT renditions.

[5] = test system: FL(IPF)-fibroblasts; experiment: miR-34a (real-time PCR) and p53 (immunoblot) in FL-fibroblasts treated with CSP; format: cell-based, human; conditions: controls PBS, CP
Description: (§1) FIGS. 6A-6D. CSP (CSP4) augments p53 expression via induction of miR-34a in FL(IPF)-fibroblasts. (FIG. 6A) NL- and FL-fibroblasts (n=3) were treated with PBS, CSP-4 (CSP) or control peptide (CP). RNA was analyzed for miR-34a by real-time PCR. (FIG. 6B) FL-fibroblasts were treated with PBS or CSP or CP with or without miR-34a antisense (miR-34a-AS) or pre-miR-34a or control miRNA (Ctr-miR). Conditioned media (CM) were immunoblotted for PAI-1 and lysates (CL) for p53 and β-actin. (FIG. 6C) FL-fibroblasts were treated with PBS or CSP or CP in the presence or absence of miR-34a-AS, pre-miR-34a or Ctr-miR. RNA was analyzed for changes in miR-34a by real-time PCR. […] Changes in p53, uPA, PAI-1 and col-I were later assessed to identify the minimum amino acids required for the CSP effects.
(§2) NL- and FL-fibroblasts were treated with PBS, CSP or CP and RNA analyzed for miR-34a by real-time PCR. Also, FL-fibroblasts were cultured in the presence of PBS or CSP or CP with or without miR-34a antisense (miR-34a-AS) or pre-miR-34a (o control miRNA. Conditioned medium (CM) from these cultures was immunoblotted for PAI-1 and cell lysates (CL) were immunoblotted for p53. In one experiment, FL-fibroblasts were treated with PBS or CSP or CP in the presence or absence of miR-34a-AS, pre-miR-34a or control miR. RNA was analyzed for changes in miR-34a by real-time PCR. Results appear in FIGS. 6A-6C.

[6] = test system: NL-fibroblasts; experiment: miR-34a and p53 in NL-fibroblasts treated with CSP; format: cell-based, human
Description: as §1, §2

Row | Sequence | BLM-induced apoptosis of LECs [1] | subsequent pulmonary fibrosis [2] | ATII cell apoptosis [3] | ATII cell p53 expression [3] | established lung fibrosis [4] | miR-34a expression [5] | p53 expression [5] | p53 expression [6]
1 | NYHYLESSMTALYTLGH [PP 2, 17 residue peptide of the inventors' earlier application] | protected | prevented | – | – | – | – | – | –
2 | DGIWKASFTTFTVTKYWFYR (Synthetic peptide - Scaffolding domain of human caveolin-1) [CSP, 20 residue peptide which is the scaffolding domain of caveolin-1] | protected | prevented | inhibited | inhibited | mitigates | significantly increased | significantly increased | not in NL-fibroblasts
